Experimental data as given in ChEMBL document CHEMBL4033619, “Autophagy antagonizes apoptosis induced by flavan enantiomers from Daphne giraldii in hepatic carcinoma cells in vitro” (Eur J Med Chem, 2017).
Activity calls are given as the source filed them. No cut-off for these calls is given here.

Target: T1, AMP-activated protein kinase, AMPK (Homo sapiens) (UniProt P54646+O43741+P54619+Q9UGJ0+Q9Y478+Q13131+Q9UGI9)
Experiment: Increase in AMPK phosphorylation at Thr172 in human Hep3B cells at 15 to 60 uM by Western blot analysis
Assay type: cell-based

Activity | SMILES
Active | CC(C)=CCc1c([C@H]2CCc3ccc(O)cc3O2)cc2c(c1O)OC(C)(C)C=C2

Tested on: Hep 3B2
Experiment: Induction of apoptosis in human Hep3B cells assessed as increase in caspase 7 level at 30 uM in presence of autophagy inhibitor bafilomycin A1 by Western blot analysis
Assay type: functional, cell-based

SMILES | Activity
CC(C)=CCc1c([C@H]2CCc3ccc(O)cc3O2)cc2c(c1O)OC(C)(C)C=C2 | Active

Tested on: Hep 3B2
Experiment: Induction of apoptosis in human Hep3B cells assessed as decrease in PARP level at 15 to 60 uM by Western blot analysis
Assay type: functional, cell-based

SMILES | Activity
CC(C)=CCc1c([C@H]2CCc3ccc(O)cc3O2)cc2c(c1O)OC(C)(C)C=C2 | Active

Tested on: Hep 3B2
Experiment: Effect on AMPK expression in human Hep3B cells at 15 to 60 uM by Western blot analysis
Assay type: functional, cell-based

SMILES | Activity
CC(C)=CCc1c([C@H]2CCc3ccc(O)cc3O2)cc2c(c1O)OC(C)(C)C=C2 | inactive

Tested on: Hep 3B2
Experiment: Induction of apoptosis in human Hep3B cells assessed as nuclear fragmentaion at 30 uM after 48 hrs by Hoechst 33258 staining-based fluorescence microscopy
Assay type: functional, cell-based

SMILES | Activity
CC(C)=CCc1c([C@H]2CCc3ccc(O)cc3O2)cc2c(c1O)OC(C)(C)C=C2 | Active

Tested on: Hep 3B2
Experiment: Induction of apoptosis in human Hep3B cells assessed as chromatin condensation at 30 uM in presence of autophagy inhibitor bafilomycin A1 by Hoechst 33258 staining-based fluorescence microscopy
Assay type: functional, cell-based

SMILES | Activity
CC(C)=CCc1c([C@H]2CCc3ccc(O)cc3O2)cc2c(c1O)OC(C)(C)C=C2 | Active

Tested on: Hep 3B2
Experiment: Induction of apoptosis in human Hep3B cells assessed as cell shrinkage at 30 uM after 48 hrs by phase contrast microscopic analysis
Assay type: functional, cell-based

SMILES | Activity
CC(C)=CCc1c([C@H]2CCc3ccc(O)cc3O2)cc2c(c1O)OC(C)(C)C=C2 | Active

Tested on: Hep 3B2
Experiment: Induction of apoptosis in human Hep3B cells assessed as membrane blebbing at 30 uM after 48 hrs by phase contrast microscopic analysis
Assay type: functional, cell-based

SMILES | Activity
CC(C)=CCc1c([C@H]2CCc3ccc(O)cc3O2)cc2c(c1O)OC(C)(C)C=C2 | Active

Tested on: Hep 3B2
Experiment: Induction of apoptosis in human Hep3B cells assessed as chromatin condensation at 30 uM after 48 hrs by Hoechst 33258 staining-based fluorescence microscopy
Assay type: functional, cell-based

SMILES | Activity
CC(C)=CCc1c([C@H]2CCc3ccc(O)cc3O2)cc2c(c1O)OC(C)(C)C=C2 | Active

Tested on: A549
Experiment: Growth inhibition of human A549 cells after 48 hrs by MTT assay
Assay type: functional, cell-based

SMILES | growth inhibition (GI)
CC(C)=CCc1c(C2CCc3ccc(O)cc3O2)cc2c(c1O)OC(C)(C)C=C2 (racemic) | Dose-dependent effect
CC(C)=CCc1c([C@@H]2CCc3ccc(O)cc3O2)ccc(O)c1O | Dose-dependent effect
CC(C)=CCc1c([C@H]2CCc3ccc(O)cc3O2)cc2c(c1O)OC(C)(C)C=C2 | Dose-dependent effect

Tested on: Hep 3B2
Experiment: Induction of autophagy in human Hep3B cells assessed as decrease in p62 level at 15 to 60 uM by Western blot analysis
Assay type: functional, cell-based

SMILES | Activity
CC(C)=CCc1c([C@H]2CCc3ccc(O)cc3O2)cc2c(c1O)OC(C)(C)C=C2 | Active

Tested on: Hep 3B2
Experiment: Induction of apoptosis in human Hep3B cells assessed as increase in caspase 9 level by Western blot analysis
Assay type: functional, cell-based

SMILES | Activity
CC(C)=CCc1c([C@H]2CCc3ccc(O)cc3O2)cc2c(c1O)OC(C)(C)C=C2 | Dose-dependent effect

Tested on: MCF7
Experiment: Cytotoxicity against human MCF7 cells by MTT assay
Assay type: functional, cell-based

SMILES | IC50 [µM]
CC(C)=CCc1c(C2CCc3ccc(O)cc3O2)cc2c(c1O)OC(C)(C)C=C2 (racemic) | > 100
CC(C)=CCc1c([C@@H]2CCc3ccc(O)cc3O2)ccc(O)c1O | > 100
CC(C)=CCc1c([C@H]2CCc3ccc(O)cc3O2)cc2c(c1O)OC(C)(C)C=C2 | > 100

Tested on: HepG2
Experiment: Cytotoxicity against human HepG2 cells by MTT assay
Assay type: functional, cell-based

SMILES | IC50 [µM]
CC(C)=CCc1c(C2CCc3ccc(O)cc3O2)cc2c(c1O)OC(C)(C)C=C2 (racemic) | 92.3
CC(C)=CCc1c([C@@H]2CCc3ccc(O)cc3O2)ccc(O)c1O | > 100
CC(C)=CCc1c([C@H]2CCc3ccc(O)cc3O2)cc2c(c1O)OC(C)(C)C=C2 | 64.2

Tested on: Hep 3B2
Experiment: Down regulation of AMPK expression in human Hep3B cells at 30 uM in presence of autophagy inhibitor bafilomycin A1 by Western blot analysis
Assay type: functional, cell-based

SMILES | Activity
CC(C)=CCc1c([C@H]2CCc3ccc(O)cc3O2)cc2c(c1O)OC(C)(C)C=C2 | Active

Target: T1, AMP-activated protein kinase, AMPK (Homo sapiens)
Experiment: Increase in AMPK phosphorylation at Thr172 in human Hep3B cells at 30 uM in presence of autophagy inhibitor bafilomycin A1 by Western blot analysis
Assay type: cell-based

Activity | SMILES
Active | CC(C)=CCc1c([C@H]2CCc3ccc(O)cc3O2)cc2c(c1O)OC(C)(C)C=C2

Tested on: Hep 3B2
Experiment: Induction of apoptosis in human Hep3B cells assessed as increase in FADD level at 30 uM in presence of autophagy inhibitor bafilomycin A1 by Western blot analysis
Assay type: functional, cell-based

SMILES | Activity
CC(C)=CCc1c([C@H]2CCc3ccc(O)cc3O2)cc2c(c1O)OC(C)(C)C=C2 | Active

Tested on: Hep 3B2
Experiment: Induction of apoptosis in human Hep3B cells assessed as increase in caspase 8 level by Western blot analysis
Assay type: functional, cell-based

SMILES | Activity
CC(C)=CCc1c([C@H]2CCc3ccc(O)cc3O2)cc2c(c1O)OC(C)(C)C=C2 | Dose-dependent effect

Tested on: MCF7
Experiment: Growth inhibition of human MCF7 cells after 48 hrs by MTT assay
Assay type: functional, cell-based

SMILES | growth inhibition (GI)
CC(C)=CCc1c(C2CCc3ccc(O)cc3O2)cc2c(c1O)OC(C)(C)C=C2 (racemic) | Dose-dependent effect
CC(C)=CCc1c([C@@H]2CCc3ccc(O)cc3O2)ccc(O)c1O | Dose-dependent effect
CC(C)=CCc1c([C@H]2CCc3ccc(O)cc3O2)cc2c(c1O)OC(C)(C)C=C2 | Dose-dependent effect

Tested on: HepG2
Experiment: Growth inhibition of human HepG2 cells after 48 hrs by MTT assay
Assay type: functional, cell-based

SMILES | growth inhibition (GI)
CC(C)=CCc1c(C2CCc3ccc(O)cc3O2)cc2c(c1O)OC(C)(C)C=C2 (racemic) | Dose-dependent effect
CC(C)=CCc1c([C@@H]2CCc3ccc(O)cc3O2)ccc(O)c1O | Dose-dependent effect
CC(C)=CCc1c([C@H]2CCc3ccc(O)cc3O2)cc2c(c1O)OC(C)(C)C=C2 | Dose-dependent effect

Tested on: Hep 3B2
Experiment: Induction of apoptosis in human Hep3B cells assessed as increase in caspase 7 level by Western blot analysis
Assay type: functional, cell-based

SMILES | Activity
CC(C)=CCc1c([C@H]2CCc3ccc(O)cc3O2)cc2c(c1O)OC(C)(C)C=C2 | Dose-dependent effect

Tested on: Hep 3B2
Experiment: Induction of apoptosis in human Hep3B cells assessed as increase in Bax level by Western blot analysis
Assay type: functional, cell-based

SMILES | Activity
CC(C)=CCc1c([C@H]2CCc3ccc(O)cc3O2)cc2c(c1O)OC(C)(C)C=C2 | Dose-dependent effect

Tested on: Hep 3B2
Experiment: Induction of autophagy in human Hep3B cells assessed as increase in conversion of LC3-1 to LC3-2 at 10 to 60 uM by Western blot analysis
Assay type: functional, cell-based

SMILES | Activity
CC(C)=CCc1c([C@H]2CCc3ccc(O)cc3O2)cc2c(c1O)OC(C)(C)C=C2 | Active

Tested on: Hep 3B2
Experiment: Induction of apoptosis in human Hep3B cells assessed as increase in caspase 8 level at 30 uM in presence of autophagy inhibitor bafilomycin A1 by Western blot analysis
Assay type: functional, cell-based

SMILES | Activity
CC(C)=CCc1c([C@H]2CCc3ccc(O)cc3O2)cc2c(c1O)OC(C)(C)C=C2 | Active

Tested on: Hep 3B2
Experiment: Induction of apoptosis in human Hep3B cells assessed as decrease in PARP level at 30 uM in presence of autophagy inhibitor bafilomycin A1 by Western blot analysis
Assay type: functional, cell-based

SMILES | Activity
CC(C)=CCc1c([C@H]2CCc3ccc(O)cc3O2)cc2c(c1O)OC(C)(C)C=C2 | Active

Tested on: Hep 3B2
Experiment: Induction of apoptosis in human Hep3B cells assessed as increase in caspase 9 level at 30 uM in presence of autophagy inhibitor bafilomycin A1 by Western blot analysis
Assay type: functional, cell-based

SMILES | Activity
CC(C)=CCc1c([C@H]2CCc3ccc(O)cc3O2)cc2c(c1O)OC(C)(C)C=C2 | Active

Tested on: Hep 3B2
Experiment: Cytotoxicity against human Hep3B cells by MTT assay
Assay type: functional, cell-based

SMILES | IC50 [µM]
CC(C)=CCc1c(C2CCc3ccc(O)cc3O2)cc2c(c1O)OC(C)(C)C=C2 (racemic) | 97.8
CC(C)=CCc1c([C@@H]2CCc3ccc(O)cc3O2)ccc(O)c1O | 62.2
CC(C)=CCc1c([C@H]2CCc3ccc(O)cc3O2)cc2c(c1O)OC(C)(C)C=C2 | 30.3

Tested on: Hep 3B2
Experiment: Induction of autophagy in human Hep3B cells at 30 uM after 48 hrs by MDC staining-based fluorescence microscopic method
Assay type: functional, cell-based

SMILES | Activity
CC(C)=CCc1c([C@H]2CCc3ccc(O)cc3O2)cc2c(c1O)OC(C)(C)C=C2 | Active

Tested on: Hep 3B2
Experiment: Induction of apoptosis in human Hep3B cells assessed as increase in cleaved PARP level at 30 uM in presence of autophagy inhibitor bafilomycin A1 by Western blot analysis
Assay type: functional, cell-based

SMILES | Activity
CC(C)=CCc1c([C@H]2CCc3ccc(O)cc3O2)cc2c(c1O)OC(C)(C)C=C2 | Active

Tested on: Hep 3B2
Experiment: Induction of apoptosis in human Hep3B cells assessed as effect on cleaved PARP level at 15 to 60 uM by Western blot analysis
Assay type: functional, cell-based

SMILES | Activity
CC(C)=CCc1c([C@H]2CCc3ccc(O)cc3O2)cc2c(c1O)OC(C)(C)C=C2 | Active

Tested on: Hep 3B2
Experiment: Induction of apoptosis in human Hep3B cells assessed as increase in Bax level at 30 uM in presence of autophagy inhibitor bafilomycin A1 by Western blot analysis
Assay type: functional, cell-based

SMILES | Activity
CC(C)=CCc1c([C@H]2CCc3ccc(O)cc3O2)cc2c(c1O)OC(C)(C)C=C2 | Active

Tested on: Hep 3B2
Experiment: Cytotoxicity against human Hep3B cells assessed as reduction in cell growth at 30 uM in presence of autophagy inhibitor bafilomycin A1 by MTT assay
Assay type: functional, cell-based

SMILES | Activity
CC(C)=CCc1c([C@H]2CCc3ccc(O)cc3O2)cc2c(c1O)OC(C)(C)C=C2 | Active

Tested on: Hep 3B2
Experiment: Induction of apoptosis in human Hep3B cells assessed as nuclear fragmentation at 30 uM in presence of autophagy inhibitor bafilomycin A1 by Hoechst 33258 staining-based fluorescence microscopy
Assay type: functional, cell-based

SMILES | Activity
CC(C)=CCc1c([C@H]2CCc3ccc(O)cc3O2)cc2c(c1O)OC(C)(C)C=C2 | Active

Tested on: Hep 3B2
Experiment: Growth inhibition of human Hep3B cells after 48 hrs by MTT assay
Assay type: functional, cell-based

SMILES | growth inhibition (GI)
CC(C)=CCc1c(C2CCc3ccc(O)cc3O2)cc2c(c1O)OC(C)(C)C=C2 (racemic) | Dose-dependent effect
CC(C)=CCc1c([C@@H]2CCc3ccc(O)cc3O2)ccc(O)c1O | Dose-dependent effect
CC(C)=CCc1c([C@H]2CCc3ccc(O)cc3O2)cc2c(c1O)OC(C)(C)C=C2 | Dose-dependent effect

Tested on: A549
Experiment: Cytotoxicity against human A549 cells by MTT assay
Assay type: functional, cell-based

SMILES | IC50 [µM]
CC(C)=CCc1c(C2CCc3ccc(O)cc3O2)cc2c(c1O)OC(C)(C)C=C2 (racemic) | 92.5
CC(C)=CCc1c([C@@H]2CCc3ccc(O)cc3O2)ccc(O)c1O | > 100
CC(C)=CCc1c([C@H]2CCc3ccc(O)cc3O2)cc2c(c1O)OC(C)(C)C=C2 | > 100

Tested on: Hep 3B2
Experiment: Induction of apoptosis in human Hep3B cells assessed as increase in FADD level by Western blot analysis
Assay type: functional, cell-based

SMILES | Activity
CC(C)=CCc1c([C@H]2CCc3ccc(O)cc3O2)cc2c(c1O)OC(C)(C)C=C2 | Dose-dependent effect
